Source: US20170112896A1, “SMALL MOLECULE RAC OR RHO INHIBITORS” (Ohio State Innovation Foundation, priority 2014, published 2017)
Square brackets hold non-standard residues; d marks the D form. Side chains are listed from the residue outwards. Peptide text beside a SMILES is read from it. * marks the point of attachment. Lys(5-FITC)NH2 = NC(=O)[C@H](CCCCNC(=S)Nc1ccc2c(c1)C(=O)OC21c2ccc(O)cc2Oc2cc(O)ccc21)N*; Phe(3,4-F2) = N[C@@H](Cc1ccc(F)c(F)c1)C(=O)O; Phe(4-F) = N[C@@H](Cc1ccc(F)cc1)C(=O)O; d2Nal = N[C@H](Cc1ccc2ccccc2c1)C(=O)O; NMeL = CN[C@@H](CC(C)C)C(=O)O; Tle = CC(C)(C)[C@H](N)C(=O)O; dNle = CCCC[C@@H](N)C(=O)O; Nle = CCCC[C@H](N)C(=O)O; Abu = CC[C@H](N)C(=O)O

Tests used:
[1] = target: T1, K-Ras(G12V) (Homo sapiens, UniProt P01116, G12V); test: Fluorescence anisotropy (FA) binding of FITC-labeled cyclic peptides to K-Ras; settings: Table 1, resynthesized FITC-labeled library hits, read-out: KD (μM), affinity for K-Ras
T1 construct: The G12V mutant K-Ras (amino acids 1-185) was recombinantly fused to glutathione 5-transferase (GST) at its N-terminus; GST (N, cleaved yes); made in house; host or cells: Escherichia coli BL21
T1 sequence (P01116 1-185 isoform P01116-2 G12V): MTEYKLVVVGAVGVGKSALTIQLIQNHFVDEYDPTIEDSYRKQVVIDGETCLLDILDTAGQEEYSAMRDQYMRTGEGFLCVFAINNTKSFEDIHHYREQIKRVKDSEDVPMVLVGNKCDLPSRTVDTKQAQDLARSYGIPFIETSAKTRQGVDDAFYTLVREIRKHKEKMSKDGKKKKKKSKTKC
Experimental: The cells were grown at 37° C. in Luria broth supplemented with 0.05 mg/mL kanamycin to an OD600 of 0.6 when protein expression was induced by addition of IPTG for a final concentration of 1 mM. After 5 h of incubation at 30° C., the cells were harvested by centrifugation. The cell pellets were lysed by sonication in a lysis buffer (40 mM Tris-HCl, 150 mM NaCl, 0.5% Triton X-100, 5 mM (3-mercaptoethanol, pH 8.0) containing a protease inhibitor cocktail tablets (Sigma). The crude cell lysate was loaded onto a glutathione-Sepharose 4B column (GE Healthcare) and the bound GST-K-Ras was eluted with an elution buffer (50 mM Tris, pH 8.0, 10 mM glutathione). After buffer exchange into PBS, the protein was quickly frozen and stored at −80° C. To generate K-Ras without the GST tag, the GST-K-Ras protein (2 mg in PBS) was treated with 20 units of thrombin (GE Healthcare) for 16 h at 4° C. The reaction mixture was passed through a glutathione-Sepharose 4B column to remove the released GST and the resulting K-Ras protein was stored at −80° C.
For cyclic peptides derived from single library beads (library screening), K-Ras protein (non-GST fusion, 0-20 μM) was incubated with the TMR-labeled peptide (50 or 100 nM) in 20 μL, of the blocking buffer for 2.5 h at 24° C. The FA values were measured on a Molecular Devices Spectramax M5 spectrofluorimeter, with excitation and emission wavelengths at 545 and 585 nm, respectively. Equilibrium dissociation constants (KD) were determined by plotting the FA values as a function of K-Ras concentration and fitting the data to the equation
where Y is the measured anisotropy at a given K-Ras concentration x; L is the peptide concentration; Qb/Qf is the correction fact for dye-protein interaction; Amax is the maximum anisotropy at saturating K-Ras concentration; and Amin is the minimum anisotropy. FA analyses with resynthesized FITC-labeled peptides were similarly carried oμL, except that the excitation and emission wavelengths were at 494 and 520 nm, respectively.

[2] = target: T2, Ras(G12V)-Raf RBD interaction (Homo sapiens, UniProt P01116, G12V); test: HTRF assay, inhibition of Ras-Raf RBD interaction; format: binding; settings: for increase of Ras binding affinity by substitution: relative to parent 9A5/9A6; for IC50: inhibition of Ras-Raf interaction, unlabeled peptide, read-out: HTRF IC50
T2 construct: The G12V mutant K-Ras (amino acids 1-185) was recombinantly fused to glutathione 5-transferase (GST) at its N-terminus; GST (N, cleaved yes); made in house; host or cells: Escherichia coli BL21
T2 sequence (P01116 1-185 isoform P01116-2 G12V): as above
Experimental: Recombinant HA-tagged K-Ras (no GST, 50 nM), GST-Raf RBD (50 nM each), a monoclonal anti-HA antibody labeled with acceptor d2 (2 μg/mL), a monoclonal anti-GST antibody labeled with donor Tb (0.25 μg/mL) (Cisbio), and increasing concentrations of cyclic peptide (0-20 μM) were mixed in PBS (total volume of 20 μL) in a 384-well plate. The plate was incubated overnight at 4° C. and the HTRF signal was measured on a Molecular Devices Spectramax M5 or a Tecan infinite M1000 Pro plate reader. The data were analyzed by Prism 6.0 from Graphpad Software, Inc. (La Jolla, Calif.) and IC50 values were obtained by fitting the data to dose-response-inhibition curve.

[3] = tested on: A549 lung cancer cells
[4] = tested on: H1299 lung cancer cells; format: cell-based; settings: for anti-proliferative activity against lung cancer cells (in words): MTT assay; for IC50: 72 h
Experimental: MTT assays (Mosmann, T. (1983) J. Immunol. Methods 65:55) were performed with H1299 lung cancer cells. One hundred μL of H1299 cells (0.5×10^5 cells/mL) were seeded in each well of a 96-well culture plate and allowed to grow overnight in Advanced RPMI medium supplemented with 10% fetal bovine serum (FBS) and 1% penicillin-streptomycin. Varying concentrations of cyclic peptide (0-25 μM) were added to the each well and the cells were incubated at 37° C. with 5% CO2 for 72 hours. Ten μL of a MTT stock solution (Roche) was added into each well. The plate was incubated at 37° C. for 4 h. Then 100 μL of SDS-HCl solubilizing buffer was added into each well, and the resulting solution was mixed thoroughly. The plate was incubated at 37° C. overnight. The absorbance of the formazan product was measured at 570 nm using a Molecular Devices Spectramax M5 plate reader. Each experiment was performed in triplicates and the cells without any peptide added were treated as control.

SMILES: CC[C@@H]1NC(=O)[C@@H](Cc2ccccc2)NC(=O)[C@H](Cc2ccc(F)cc2)NC(=O)[C@@H](CC(N)=O)NC(=O)[C@H](Cc2ccc(F)cc2)NC(=O)[C@H](CCCNC(=N)N)NC(=O)[C@@H](Cc2ccc3ccccc3c2)NC(=O)[C@H](CCCNC(=N)N)NC(=O)[C@H](CCCNC(=N)N)NC(=O)[C@H](CCC(=O)N[C@@H](CCCCNC(=S)Nc2ccc3c(c2)C(=O)OC32c3ccc(O)cc3Oc3cc(O)ccc32)C(N)=O)NC1=O [Cyclorasin 13A] (cyclo([Abu]E(Lys(5-FITC)NH2)RR[d2Nal]R[Phe(4-F)][dN][Phe(4-F)][dF]))
- Kd [1]: 1 ± 0.2 µM

SMILES: CCCC[C@H]1NC(=O)[C@H](Cc2ccc(F)cc2)NC(=O)[C@H](CCCNC(=N)N)NC(=O)[C@@H](Cc2ccc3ccccc3c2)NC(=O)[C@H](CCCNC(=N)N)NC(=O)[C@H](CCCNC(=N)N)NC(=O)[C@@H](CCCNC(=N)N)NC(=O)[C@@H](C)NC(=O)[C@H]([C@@H](C)O)NC(=O)[C@H](Cc2c[nH]c3ccccc23)NC(=O)[C@H](CCC(N)=O)NC1=O [Cyclorasin 9A6] (cyclo(WT[dA][dR]RR[d2Nal]R[Phe(4-F)][dNle]Q))
- higher potency than 9A1 against K-Ras ([2]; relative to 9A1): 3 fold
- cell permeability / intracellular fluorescence [3]: improved cell permeability

SMILES: CC(C)[C@H]1NC(=O)[C@H](Cc2ccc(O)cc2)NC(=O)[C@H](CCCNC(=N)N)NC(=O)[C@H](Cc2ccc(F)cc2)NC(=O)[C@H](CCCNC(=N)N)NC(=O)[C@@H](Cc2ccc3ccccc3c2)NC(=O)[C@H](CCCNC(=N)N)NC(=O)[C@H](CCCNC(=N)N)NC(=O)[C@H](CCC(=O)N[C@@H](CCCCNC(=S)Nc2ccc3c(c2)C(=O)OC32c3ccc(O)cc3Oc3cc(O)ccc32)C(N)=O)NC(=O)[C@H](Cc2ccc(F)cc2)NC1=O [Cyclorasin 7A] (cyclo(E(Lys(5-FITC)NH2)RR[d2Nal]R[Phe(4-F)]RY[dV][Phe(4-F)]))
- Kd [1]: 0.88 ± 0.27 µM

SMILES: C[C@H]1NC(=O)[C@H](CCCNC(=N)N)NC(=O)[C@H](Cc2c[nH]c3ccccc23)NC(=O)[C@H](CCCNC(=N)N)NC(=O)[C@H](Cc2ccc(F)cc2)NC(=O)[C@H](CCCNC(=N)N)NC(=O)[C@@H](Cc2ccc3ccccc3c2)NC(=O)[C@H](CCCNC(=N)N)NC(=O)[C@H](CCCNC(=N)N)NC(=O)[C@H](CCC(N)=O)NC1=O [Cyclorasin 12A, (Arg-Arg-nal-Arg-Fpa-Arg-Trp-Arg-ala-Gln)] (cyclo(RR[d2Nal]R[Phe(4-F)]RWR[dA]Q))
- anti-proliferative activity against lung cancer cells (in words) [4]: weak anti-proliferative activity
- cell permeability / intracellular fluorescence [3]: cell permeable

SMILES: CCCC[C@H]1NC(=O)[C@H](Cc2ccc(F)cc2)NC(=O)[C@H](CCCNC(=N)N)NC(=O)[C@@H](Cc2ccc3ccccc3c2)NC(=O)[C@H](CCCNC(=N)N)NC(=O)[C@H](CCCNC(=N)N)NC(=O)[C@@H](CCCNC(=N)N)NC(=O)[C@@H](C)NC(=O)[C@H](C(C)(C)C)NC(=O)[C@H](Cc2c[nH]c3ccccc23)NC(=O)[C@H](CCC(N)=O)NC1=O [Cyclorasin 9A16] (cyclo(W[Tle][dA][dR]RR[d2Nal]R[Phe(4-F)][dNle]Q))
- increase of Ras binding affinity by substitution [2]: 2 fold
- IC50 [4]: 3.5 ± 0.6 µM

SMILES: C[C@H]1NC(=O)[C@H]([C@@H](C)O)NC(=O)[C@H](Cc2c[nH]c3ccccc23)NC(=O)[C@H](CCC(N)=O)NC(=O)[C@@H](CCCNC(=N)N)NC(=O)[C@H](Cc2ccc(F)c(F)c2)NC(=O)[C@H](CCCNC(=N)N)NC(=O)[C@@H](Cc2ccc3ccccc3c2)NC(=O)[C@H](CCCNC(=N)N)NC(=O)[C@H](CCCNC(=N)N)NC(=O)[C@H](CCCNC(=N)N)NC1=O [Cyclorasin 9A52] (cyclo([Phe(3,4-F2)][dR]QWT[dA]RRR[d2Nal]R))
- IC50 [2]: > 1 µM

SMILES: C[C@H]1NC(=O)[C@H]([C@@H](C)O)NC(=O)[C@H](Cc2c[nH]c3ccccc23)NC(=O)[C@H](CCC(N)=O)NC(=O)[C@@H](CCCNC(=N)N)NC(=O)[C@H](Cc2ccc(F)cc2)NC(=O)[C@H](CCCNC(=N)N)NC(=O)[C@@H](Cc2ccc3ccccc3c2)NC(=O)[C@H](CCCNC(=N)N)NC(=O)[C@H](CCCNC(=N)N)NC(=O)[C@H](CCCNC(=N)N)NC1=O [Cyclorasin 9A45] (cyclo(WT[dA]RRR[d2Nal]R[Phe(4-F)][dR]Q))
- increase of Ras binding affinity by substitution [2]: 4 fold
- IC50 [4]: 8.9 ± 2.1 µM

SMILES: CCCC[C@H]1NC(=O)[C@H](Cc2ccc(F)c(F)c2)NC(=O)[C@H](CCCNC(=N)N)NC(=O)[C@@H](Cc2ccc3ccccc3c2)NC(=O)[C@H](CCCNC(=N)N)NC(=O)[C@H](CCCNC(=N)N)NC(=O)[C@H](CCCNC(=N)N)NC(=O)[C@@H](C)NC(=O)[C@H]([C@@H](C)O)NC(=O)[C@H](Cc2c[nH]c3ccccc23)NC(=O)[C@H](CCC(N)=O)NC1=O [Cyclorasin 9A43] (cyclo(WT[dA]RRR[d2Nal]R[Phe(3,4-F2)][dNle]Q))
- increase of Ras binding affinity by substitution [2]: 2 fold
- IC50 [4]: 6.9 ± 0.8 µM

SMILES: CCCC[C@H]1NC(=O)[C@H](Cc2ccc(F)cc2)NC(=O)[C@H](CCCNC(=N)N)NC(=O)[C@@H](Cc2ccc3ccccc3c2)NC(=O)[C@H](CCCNC(=N)N)NC(=O)[C@H](CCCNC(=N)N)NC(=O)[C@H](CCC(=O)N[C@@H](CCCCNC(=S)Nc2ccc3c(c2)C(=O)OC32c3ccc(O)cc3Oc3cc(O)ccc32)C(N)=O)NC(=O)[C@@H](C)NC(=O)[C@H]([C@@H](C)O)NC(=O)[C@H](Cc2c[nH]c3ccccc23)NC(=O)[C@@H](CO)NC1=O [Cyclorasin 9A, (Arg-Arg-nal-Arg-Fpa-nle-ser-Trp-Thr-ala-Gln)] (cyclo(RR[d2Nal]R[Phe(4-F)][dNle][dS]WT[dA]E(Lys(5-FITC)NH2)))
- IC50 [4]: 18 ± 4 µM
- anti-proliferative activity against lung cancer cells (in words) [4]: weak anti-proliferative activity
- cell permeability / intracellular fluorescence [3]: cell permeable

SMILES: CC(C)C[C@H]1C(=O)N[C@@H](CCC(=O)N[C@@H](CCCCNC(=S)Nc2ccc3c(c2)C(=O)OC32c3ccc(O)cc3Oc3cc(O)ccc32)C(N)=O)C(=O)N[C@@H](CCCNC(=N)N)C(=O)N[C@@H](CCCNC(=N)N)C(=O)N[C@H](Cc2ccc3ccccc3c2)C(=O)N[C@@H](CCCNC(=N)N)C(=O)N[C@@H](Cc2ccc(F)cc2)C(=O)N[C@H](CC(N)=O)C(=O)N[C@H](Cc2ccc3ccccc3c2)C(=O)N1C [Cyclorasin 3A] (cyclo(E(Lys(5-FITC)NH2)RR[d2Nal]R[Phe(4-F)][dN][d2Nal][NMeL]))
- Kd [1]: 0.91 ± 0.23 µM

SMILES: CCCC[C@H](NC(=O)CC[C@@H]1NC(=O)[C@@H](C)NC(=O)[C@H]([C@@H](C)O)NC(=O)[C@H](Cc2c[nH]c3ccccc23)NC(=O)[C@H](CCC(N)=O)NC(=O)[C@@H](CCCC)NC(=O)[C@H](Cc2ccc(F)cc2)NC(=O)[C@H](CCCNC(=N)N)NC(=O)[C@@H](Cc2ccc3ccccc3c2)NC(=O)[C@H](CCCNC(=N)N)NC(=O)[C@H](CCCNC(=N)N)NC1=O)C(N)=O [Cyclorasin 9A4] (cyclo(RR[d2Nal]R[Phe(4-F)][dNle]QWT[dA]E([Nle-NH2])))
- IC50 [2]: 0.5 ± 0.1 µM

SMILES: CCCC[C@H]1NC(=O)[C@H](Cc2ccc(F)cc2)NC(=O)[C@H](CCCNC(=N)N)NC(=O)[C@@H](Cc2ccc3ccccc3c2)NC(=O)[C@H](CCCNC(=N)N)NC(=O)[C@H](CCCNC(=N)N)NC(=O)[C@@H](CCCNC(=N)N)NC(=O)[C@@H](C(C)C)NC(=O)[C@H]([C@@H](C)O)NC(=O)[C@H](Cc2c[nH]c3ccccc23)NC(=O)[C@H](CCC(N)=O)NC1=O [Cyclorasin 9A14] (cyclo(WT[dV][dR]RR[d2Nal]R[Phe(4-F)][dNle]Q))
- increase of Ras binding affinity by substitution [2]: 2 fold
- IC50 [4]: 5.4 ± 2.4 µM
